Assay [1] concerns IadD/E-IadC dioxygenase system. Briefly: In vitro IAA and analogs transformation assay, IadC + IadD/E. The class given is biochemical, Variovorax paradoxus CL14. Conditions: normalised, replicates. On the procedure: The reaction mixture was composed of 100 mM Tris-HCl (pH7.5), 250 μM reduced NADH, 10 μM ammonium iron (II) sulfate, and 3 μM of each enzyme component. […] The mixture was vortexed periodically to introduce oxygen for the reaction and was boiled to stop the reaction. After pelleting the precipitants, the supernatant was collected and mixed with 2 volumes of Salkowski reagent made of 0.5 M ferric chloride and 35% perchloric acid for the quantification of residual substrate by measuring the adsorption at 530 nm.

The next assay addresses IadK2 (Variovorax paradoxus, UniProt T1X8R6). Nature of the assay: ITC, auxins binding to IadK2. On the procedure:
(§1) ITC experiments were performed using a MicroCal PEAQ-ITC system (Malvern). All the experiments were performed at […] in a buffer containing 25 mM Tris-HCl (pH 7.5) and 150 mM NaCl (unless otherwise stated). […] Data was analyzed using the MicroCal PEAQ-ITC analysis software. All the measurements were repeated at least 2 times.

Assay [2] has as its target IadD (Variovorax paradoxus CL14). Nature of the assay: cryo-EM structure; purified IadD/E complex with 20-fold molar excess of IAA, 2.6 Å (2.59 Å), C3 symmetry.
The target in assay [3] is IadE (Variovorax paradoxus CL14). Nature of the assay: SEC; co-expressed IadD/E complex purified by cation exchange, 20 mg/ml, HiLoad 200 column, 25 mM Tris-HCl pH 7.5, 150 mM NaCl, 2 mM DTT; peak fractions on SDS-PAGE. In general terms: Size exclusion chromatography separates by hydrodynamic size, large species first.
Another assay concerns the target IadK3 (Variovorax paradoxus, UniProt A0A0H2LZ84). Nature of the assay: ITC, auxins binding to IadK3. Also on record: species or system Variovorax paradoxus CL14. On the procedure:
as §1
A general note: In ITC the heat of successive injections is recorded.

The target in assay [4] is IadE (Variovorax paradoxus CL14). Briefly: cryo-EM structure; purified IadD/E complex with 20-fold molar excess of IAA, 2.6 Å (2.59 Å), C3 symmetry.
Where [5] appears, read: ITC, single-phase isotherm, auxin analogs to IadK2, mean ± SEM, read-out: KD.
[6] abbreviates: IadK2, ITC, replicates, read-out: Kd.

Consider 10 molecules from publication PMC10374108, “Structural and biochemical characterization of the key components of an auxin degradation operon from the rhizosphere bacterium Variovorax” (PLOS Biology, 2023).

Several values for one entry are separate records, joined by “and”; a condition that tells them apart may be missing. Equal values may be shown once. Read-outs that look alike come from different tables or passages of the source.

Chain of IadK2 (T1X8R6 entry or part of it): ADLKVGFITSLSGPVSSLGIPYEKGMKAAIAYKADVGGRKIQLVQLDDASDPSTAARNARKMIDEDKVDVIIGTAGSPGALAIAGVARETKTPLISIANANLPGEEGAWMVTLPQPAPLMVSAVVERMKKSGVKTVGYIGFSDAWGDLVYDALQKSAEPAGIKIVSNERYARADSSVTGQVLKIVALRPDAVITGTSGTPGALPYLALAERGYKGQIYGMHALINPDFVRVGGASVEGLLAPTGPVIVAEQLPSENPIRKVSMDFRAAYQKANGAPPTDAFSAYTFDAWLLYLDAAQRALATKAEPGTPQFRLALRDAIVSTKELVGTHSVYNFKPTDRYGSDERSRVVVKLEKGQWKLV
Chain of IadK3 (A0A0H2LZ84 entry or part of it): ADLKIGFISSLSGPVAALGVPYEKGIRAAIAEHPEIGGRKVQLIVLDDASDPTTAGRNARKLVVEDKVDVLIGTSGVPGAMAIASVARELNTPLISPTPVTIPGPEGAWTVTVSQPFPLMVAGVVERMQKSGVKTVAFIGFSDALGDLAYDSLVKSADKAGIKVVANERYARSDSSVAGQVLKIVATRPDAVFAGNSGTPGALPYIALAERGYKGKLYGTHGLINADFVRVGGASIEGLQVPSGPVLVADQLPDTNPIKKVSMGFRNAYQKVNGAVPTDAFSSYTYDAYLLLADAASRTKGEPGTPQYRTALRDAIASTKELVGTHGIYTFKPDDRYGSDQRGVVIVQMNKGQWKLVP

On to `O=C(O)CCCc1c[nH]c2ccccc12` [IBA, indole-3-butyric acid], for which, in assay [1], the “relative substrate level after reaction” value is 1.033 and 0.9962 and 0.976; the “relative substrate level before reaction” value was 1 and 1.003 and 0.9923. Further, the Kd on IadK2 (setting [5]) is 18 ± 7 µM. Further, on IadK2 (setting [6]), the Kd is 28 µM and 11 µM and 16 µM.
With `O=C(O)COc1ccc(Cl)cc1Cl` [2,4-D, 2,4-dichlorophenoxyacetic acid], the Kd was over 100 µM on IadK2 (ITC, single-phase isotherm, auxin analogs to IadK2, mean ± SEM) and over 100 µM at IadK2 (IadK2, ITC, replicates).
The term stoichiometry N denotes a count of units in the complex or per binding partner. For the molecule IadD (enzyme), the stoichiometry N in assay [2] was determined as 3. Besides, the stoichiometry N (IadD:IadE molar ratio) in assay [3] came to 1.
On to `O=C(O)Cc1cccc2ccccc12` [NAA, 1-naphthylacetic acid], for which the Kd at IadK2 (setting [5]) was 17 ± 2.2 µM; at IadK2 (setting [6]) it was 15 µM and 16 µM and 20 µM.
As for `O=C(O)CC1C(=O)Nc2ccccc21` (centres unmarked) [oxIAA, 2-oxindole-3-acetic acid], the “association with IadK3” value at IadK3 (result in words, method not stated) is on record as “weakly associate”.
In assay [4], IadE (enzyme) registered a stoichiometry N of 3.
On to `O=C(O)Cc1c[nH]c2ccc(O)cc12` [5-HIAA, 5-hydroxy indole-3-acetic acid], for which, in assay [1], the “relative substrate level after reaction” value is 0.2661 and 0.2238 and 0.1936; the “relative substrate level before reaction” value was 1 and 1.014 and 0.9931.
Turning to `O=C(O)Cc1c[nH]c2cccc(Cl)c12` [4-Cl-IAA, 4-chloroindole-3-acetic acid], in assay [1], the “relative substrate level after reaction” value was 0.2122 and 0.2346 and 0.1886; the “relative substrate level before reaction” value was 1 and 0.9732 and 0.9831. Moreover, the Kd on IadK2 (setting [5]) stood at 15.2 ± 6.8 µM. Also, the Kd on IadK2 (setting [6]) is 7 µM and 23.8 µM and 15 µM.
In the case of `O=C(O)Cc1ccccc1` [PAA, phenylacetic acid], on IadK2 (result in words), the “binding to IadK2 (ITC)” value is “no binding”. Also, the Kd at IadK3 is over 100 µM; at IadK3 (read-out: ITC binding, IadK3, ITC, replicates), over 100 µM. Further, on IadK3 (result in words), the “binding to IadK3 (ITC)” value was “no binding detected”.
For `O=C(O)CCc1c[nH]c2ccccc12` [IPA, indole-3-propionic acid], in assay [1], the “relative substrate level after reaction” value is 0.9755 and 1.034 and 0.9864; the “relative substrate level before reaction” value was 1 and 1.004 and 1.006. Also, the Kd on IadK2 (setting [5]) came out at 1.4 ± 0.2 µM. In addition, on IadK2 (setting [6]), the Kd is 1.6 µM and 1.2 µM and 1.5 µM.
